This assay has as its target Pin1 (Homo sapiens, UniProt Q13526). The assay can be described thus: protease-coupled PPIase assay (pNA release at […] nm, […]°C). The format is biochemical.

The structures appear in SMILES notation.

Pin1, sequence (Q13526 whole entry): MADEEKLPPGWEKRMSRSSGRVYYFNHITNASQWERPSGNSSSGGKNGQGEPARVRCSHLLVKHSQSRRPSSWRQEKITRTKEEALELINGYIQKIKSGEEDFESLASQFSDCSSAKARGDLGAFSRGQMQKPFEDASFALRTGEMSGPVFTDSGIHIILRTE

For orientation: IC50 means the point on the concentration scale where inhibition reaches its midpoint. Compound `CC(=O)N[C@@H](/C=C1/CCCC[C@H]1C(=O)NCCc1ccc2ccccc2c1)COP(=O)(O)O` [(2S,5R)-1, Ac–D-pSer–Ψ[(Z)CH = C]–L-Pip–2-(2-naphthyl)ethylamine (NEA)] displayed an IC50 of 85 ± 10 µM. For `CC(=O)N[C@H](/C=C1/CCCC[C@@H]1C(=O)NCCc1ccc2ccccc2c1)COP(=O)(O)O` [(2R,5S)-1, Ac–L-pSer–Ψ[(Z)CH = C]-D-Pip–NEA] the value was 52 ± 4 µM; for `CC(=O)N[C@@H](/C=C1/CCCC[C@@H]1C(=O)NCCc1ccc2ccccc2c1)COP(=O)(O)O` [(2S,5S)-1, (2S,5S)-Ac–pSer–Ψ[(Z)CH = C]–pipecolyl(Pip)–2-(2-naphthyl)ethylamine 1], 140 ± 20 µM.

These data come from article PMC4596862, “Stereochemical Control in the Still-Wittig Rearrangement Synthesis of Cyclohexyl (Z)-Alkene Inhibitors of Pin1” (PLoS ONE, 2015).
